In patent US12559504B2, “Benzotriazole derivative” (UBE CORPORATION, priority 2019, dated 2026):

What was measured:
[1] = target: T1, GST fusion human Keap1 (amino acid residue: 325-624) protein (Homo sapiens, UniProt Q14145); assay: Keap1-Nrf2 binding inhibition test (fluorescence polarization); conditions: compound concentration of 100 nM; read-out: inhibition rate
T1 construct: GST fusion human Keap1 (amino acid residue: 325-624) protein; purchased Protein tech Ag0779
Outline: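 Fluorescence polarization with FITC-labelled Nrf2 peptide (FITC-Ahx-LDEETGEFL-NH2) and GST-human Keap1 (325-624) in 20 mM Tris pH 7.5, 150 mM NaCl, 0.05% Tween 20, 5 mM DTT, BSA; 30 min at room temperature, ex 482/em 530 nm. Percent inhibition at 100 nM compound, Keap1-free wells = 100%.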

[2] = test system: NQO1; assay: NQO1 expression induction test in mouse kidney (single administration); format: in vivo; conditions: Mus musculus, po, 6 h, BALB/c mouse kidney, 6 hours after administration, ratio to control group
Outline: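 Female BALB/c mice received a single oral dose of compound in 0.5% methylcellulose, with untreated mice as controls. Six hours later, left-kidney NQO1 mRNA was measured by SYBR real-time RT-PCR normalised to GAPDH. Induction was expressed as the ratio of mean treated to mean control expression.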

[3] = Metabolism test using human liver microsome fractions; format: in vitro ADME; conditions: human liver microsomes, test compound 10 μmol/L, NADPH and UDP-glucuronic acid, 37° C.
Outline: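 Human or monkey liver microsomes (1 mg protein) with NADPH-regenerating system plus UDP-glucuronic acid/UGT mix, 37 °C; compound at 10 μmol/L final. Samples at 0–30 min quenched in acetonitrile, UV-HPLC; elimination rate (pmol/min/mg-P) from linear slope of residual amount over time.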

[4] = test system: NQO1; assay: NQO1 enzyme induction test (in vitro) in Hepa1c1c7 cells; format: cell-based; conditions: Mus musculus, Hepa-1c1c7, 48 h, concentration to elevate the NQO1 activity by 1.5 times, about 48 hours, read-out: EC150
Protocol: Each NQO1 assay was carried out by modifying a known method (Anal Biochem 1998; 169: 328-, Methods Enzymol 2004; 382: 243-). Hepa1c1c7 cells (mouse hepatocyte line manufacture by DS Pharma Biomedical Co., Ltd., REF. No. 95090613) were cultured (5% CO2, 37° C.). The cells were cultured in MEMα (manufactured by FUJIFILM Wako Pure Chemical Corporation, REF. 135-15175) medium comprising 10% FBS (manufactured by GIBCO, REF. 10082) and […]/streptomycin/amphotericin B (manufactured by GIBCO, REF. 15240), and dispensed into a 96 well plate (manufactured by Costar, REF. 3610) at 2.0×10^3 cells/well. On the next day, test compound (final concentration of […]: 0.1%) dissolved into DMSO (manufactured by FUJIFILM Wako Pure Chemical Corporation, REF. 043-07216) was added to each well, and the plate was further cultured for about 48 hours.
A cell lysate manufactured by Cell signaling Technology, Inc. (REF. 9803) with the addition of a Protease Inhibitor manufactured by Roche Diagnostics K.K. (REF. 11-873580001) was used. A reaction solution (which is a solution comprising trishydrochloric acid (25 mM), albumin […], Tween-20 (0.01%), glucose-6-phosphate dehydrogenase (2 U/mL), flavin-adenine dinucleotide (5 μM), glucose-6-phosphate (1 μM), nicotinamide adenine dinucleotide phosphate (30 μM), 3-(4,5-dimethyl-2-thiazolyl)-2,5-diphenyltetrazolium bromide (MTT) (0.03%), and menadione (50 μM)), and a stop solution (which is a solution comprising dicumarol (0.3 mM) and potassium dihydrogen phosphate (5 mM), pH 7.4) were prepared. After the medium was removed, cell lysate (50 μL) was added thereto, and the resulting mixture was shaken at room temperature for 20 minutes. The reaction solution (200 μL) was added thereto, and the resulting mixture was left to stand at room temperature for 5 minutes. The stop solution (50 μL) was added thereto, and absorbance at 540 nm (reference 750 nm) was measured.
Cell number was measured by Cell Titer Glo assay (manufactured by Promega Corporation, REF. G9242) by using another plate prepared according to the same conditions as those described above, and correction of absorbance was carried out. The test result was analyzed by Excel, and the EC150 value which is the concentration to elevate the NQO1 activity by 1.5 times was calculated.

T1 sequence (Q14145 325-624): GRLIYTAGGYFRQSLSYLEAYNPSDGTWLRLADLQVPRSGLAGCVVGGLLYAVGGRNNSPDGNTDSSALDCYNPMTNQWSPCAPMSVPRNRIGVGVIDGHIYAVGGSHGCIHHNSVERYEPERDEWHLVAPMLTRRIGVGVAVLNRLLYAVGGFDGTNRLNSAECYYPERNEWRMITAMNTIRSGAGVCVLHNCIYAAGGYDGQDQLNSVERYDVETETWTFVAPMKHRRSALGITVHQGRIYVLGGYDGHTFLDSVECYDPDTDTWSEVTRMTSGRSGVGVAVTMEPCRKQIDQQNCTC

inhibition at 0.1 µM [1] | Structure (SMILES) | fold induction at 30 mg/kg [2] | Human metabolic rate [3] | EC (1.5-fold NQO1 activity) [4] | fold induction at 20 mg/kg [2]
≥ 50% | CC[C@@H]1CN(Cc2cc(C(c3ccc4c(nnn4C)c3C)C(C)(C)C(=O)O)ccc2C)Cc2ccc3c(c2O1)OC(F)(F)O3 (stereo partly drawn) [Example 2-(b), 3-(1,4-dimethyl-1H-benzo[d][1,2,3]triazol-5-yl)-3-(3-(((R)-9-ethyl-2,2-difluoro-8,9-dihydro-[1,3]dioxolo[4′,5′:3,4]benzo[1,2-f][1,4]oxazepin-7(6H)-yl)methyl)-4-methylphenyl)-2,2-dimethylpropanoic Acid] | 3 to 6 | A (metabolic rate<100 pmol/min/mg protein) | 0.0005 to 0.005 µM | –
≥ 50% | CC[C@@H]1CN(Cc2cc(C(c3ccc4c(nnn4C)c3C)C(C)(C)C(=O)O)ccc2C)Cc2cc3ccsc3cc2O1 (stereo partly drawn) [Example 72-(b), 3-(1,4-dimethyl-1H-benzo[d][1,2,3]triazol-5-yl)-3-(3-(((R)-2-ethyl-2,3-dihydrothieno[2′,3′:4,5]benzo[1,2-f][1,4]oxazepin-4(5H)-yl)methyl)-4-methylphenyl)-2,2-dimethylpropanoic Acid] | – | A (metabolic rate<100 pmol/min/mg protein) | 0.005 to 0.05 µM | ≤ 3
≥ 50% | CC[C@@H]1CN(Cc2cc(C(c3ccc4c(nnn4C)c3C)C(C)(C)C(=O)O)ccc2C)Cc2cc3c(cc2O1)SCC3 (stereo partly drawn) [Example 73-(b), 3-(1,4-dimethyl-1H-benzo[d][1,2,3]triazol-5-yl)-3-(3-(((R)-2-ethyl-2,3,7,8-tetrahydrothieno[2′,3′:4,5]benzo[1,2-f][1,4]oxazepin-4(5H)-yl)methyl)-4-methylphenyl)-2,2-dimethylpropanoic Acid] | – | C (150≤metabolic rate<200 pmol/min/mg protein) | 0.005 to 0.05 µM | > 6
≥ 50% | CC[C@@H]1CN(Cc2cc(C(c3ccc4c(c3)nnn4C)C(C)(C)C(=O)O)ccc2C)Cc2cc3ncccc3cc2O1 (stereo partly drawn) [Example 82-(b), 3-(3-(((R)-2-ethyl-2,3-dihydro-[1,4]oxazepino[7,6-g]quinolin-4 (5H)-yl)methyl)-4-methylphenyl)-2,2-dimethyl-3-(1-methyl-1H-benzo[d][1,2,3]triazol-5-yl) propanoic Acid] | – | B (100≤metabolic rate<150 pmol/min/mg protein) | 0.005 to 0.05 µM | > 6
≥ 50% | CC[C@@H]1CN(Cc2cc(C(c3ccc4c(nnn4C)c3C)C(C)(C)C(=O)O)ccc2C)Cc2ccc3c(c2O1)CCC3 (stereo partly drawn) [Example 6-(b), 3-(1,4-dimethyl-1H-benzo[d][1,2,3]triazol-5-yl)-3-(3-(((R)-2-ethyl-2,3,5,8,9,10-hexahydro-4H-indeno[5,4-f][1,4]oxazepin-4-yl)methyl)-4-methylphenyl)-2,2-dimethylpropanoic Acid] | 3 to 6 | B (100≤metabolic rate<150 pmol/min/mg protein) | 0.005 to 0.05 µM | –
≥ 50% | CC[C@@H]1CN(Cc2cc(C(c3ccc4c(nnn4C)c3C)C(C)(C)C(=O)O)ccc2C)Cc2cc3c(Cl)cccc3cc2O1 (stereo partly drawn) [Example 68-(b), 3-(3-(((R)-7-chloro-2-ethyl-2,3-dihydronaphtho[2,3-f][1,4]oxazepin-4 (5H)-yl)methyl)-4-methylphenyl)-3-(1,4-dimethyl-1H-benzo[d][1,2,3]triazol-5-yl)-2,2-dimethylpropanoic Acid] | – | A (metabolic rate<100 pmol/min/mg protein) | 0.005 to 0.05 µM | 3 to 6
≥ 50% | CC[C@@H]1CN(Cc2cc(C(c3ccc4c(nnn4C)c3C)C(C)(C)C(=O)O)ccc2C)Cc2c(ccc3cccnc23)O1 (stereo partly drawn) [Example 17-(b), 3-(1,4-dimethyl-1H-benzo[d][1,2,3]triazol-5-yl)-3-(3-(((R)-8-ethyl-8,9-dihydro-[1,4]oxazepino[7,6-h]quinolin-10 (11H)-yl)methyl)-4-methylphenyl)-2,2-dimethylpropanoic Acid] | 3 to 6 | E (metabolic rate≥250 pmol/min/mg protein) | 0.005 to 0.05 µM | –
≥ 50% | CC[C@@H]1CN(Cc2cc(C(c3ccc4c(nnn4C)c3C)C(C)(C)C(=O)O)ccc2C)Cc2cc3cccc(C)c3nc2O1 (stereo partly drawn) [Example 13-(b), 3-(1,4-dimethyl-1H-benzo[d][1,2,3]triazol-5-yl)-3-(3-(((R)-2-ethyl-10-methyl-2,3-dihydro-[1,4]oxazepino[7,6-b]quinolin-4 (5H)-yl)methyl)-4-methylphenyl)-2,2-dimethylpropanoic Acid] | 3 to 6 | E (metabolic rate≥250 pmol/min/mg protein) | 0.0005 to 0.005 µM | –
≥ 50% | CC[C@@H]1CN(Cc2cc(C(c3ccc4c(nnn4C)c3C)C(C)(C)C(=O)O)ccc2C)Cc2cc3cnn(C)c3cc2O1 (stereo partly drawn) [Example 50-(b), 3-(1,4-dimethyl-1H-benzo[d][1,2,3]triazol-5-yl)-3-(3-(((R)-8-ethyl-1-methyl-1,5,7,8-tetrahydro-6H-[1,4]oxazepino[6,7-f]indazol-6-yl)methyl)-4-methylphenyl)-2,2-dimethylpropanoic Acid] | > 6 | C (150≤metabolic rate<200 pmol/min/mg protein) | 0.0005 to 0.005 µM | –
≥ 50% | CC[C@@H]1CN(Cc2cc(C(c3ccc4c(nnn4C)c3C)C(C)(C)C(=O)O)ccc2C)Cc2cc3c(cc2O1)CCC3 (stereo partly drawn) [Example 3-(b), 3-(1,4-dimethyl-1H-benzo[d][1,2,3]triazol-5-yl)-3-(3-(((R)-2-ethyl-2,3,5,7,8,9-hexahydro-4H-indeno[5,6-f][1,4]oxazepin-4-yl)methyl)-4-methylphenyl)-2,2-dimethylpropanoic Acid] | > 6 | C (150≤metabolic rate<200 pmol/min/mg protein) | 0.005 to 0.05 µM | –
≥ 50% | CC[C@@H]1CN(Cc2cc(C(c3ccc4c(nnn4C)c3C)C(C)(C)C(=O)O)ccc2C)CC2=C(C=CC3=NCCCN32)O1 (stereo partly drawn) [Example 23, 3-(1,4-dimethyl-1H-benzo[d][1,2,3]triazol-5-yl)-3-(3-(((R)-4-ethyl-1,3,4,9,10,11-hexahydro-2H-pyrimido[1′,2′:1,6]pyrido[2,3-f][1,4]oxazepin-2-yl)methyl)-4-methylphenyl)-2,2-dimethylpropanoic Acid] | ≤ 3 | – | 0.05 to 0.5 µM | –
≥ 50% | CC[C@@H]1CN(Cc2cc(C(c3ccc4c(nnn4C)c3C)C(C)(C)C(=O)O)ccc2C)Cc2cc(Cl)c3ccccc3c2O1 (stereo partly drawn) [Example 67-(b), 3-(3-(((R)-7-chloro-2-ethyl-2,3-dihydronaphtho[2,1-f][1,4]oxazepin-4 (5H)-yl)methyl)-4-methylphenyl)-3-(1,4-dimethyl-1H-benzo[d][1,2,3]triazol-5-yl)-2,2-dimethylpropanoic Acid] | – | – | 0.005 to 0.05 µM | ≤ 3
